Patent US11612612B2, “Pharmaceutical compositions” (CIPLA LIMITED, priority 2016, dated 2023)
Where a name gives a salt, the structure may show the parent alone.

Tests used:
[1] = Caco-2 bidirectional assay, effect of piperine on permeability of darunavir; format: in vitro ADME; details: human, Caco-2, pH 7.4
Protocol: (§1) Cells were treated with drugs as follows:
(§2) The sample were analyzed on LCMS-MS.

in vitro = details: human, Caco-2, pH 7.4
Protocol: Caco-2 cells were cultured in MEM media with 10% serum and seeded at a density of 75000 cells per mL and cultured for 21 days in a 24-well trans-well plate at 37° C., 5% CO2. The monolayer integrity was checked intermittently (Day 0-21) using Trans Epithelial Electric Resistance (TEER).
(§5) 400 μL samples were added to the wells as per the plate setup to the apical side in duplicates with 800 μL HBSS pH 7.4 in the basal wells. Samples were collected at 60, 90 and 120 minutes from the basal side. Mass balance samples at 0 and 120 minutes were collected from the apical side.
For B-A, 800 μL of the respective dilutions were added to the basal side in duplicates with 400 μL HBSS pH 7.4 in the apical wells. Samples were collected at 60, 90 and 120 minutes from the apical side. Mass balance samples at 0 and 120 minutes were collected from the basal side. The sample were analyzed on LCMS-MS.
At the end of the experiment the monolayer integrity was checked using Lucifer yellow, and calculating the % rejection of Lucifer yellow by incubating cells with 100 μg/mL Lucifer.
(§6) For Lucifer yellow, % Lucifer Yellow Passage=[RFU (test)−RFU (blank)/RFU (equilibrium)−RFU (blank)]*100

[2] = Caco-2 bidirectional assay, effect of piperine on permeability of dolutegravir; details: human, Caco-2, pH 7.4
Protocol: as §1
(§3) The samples were analyzed on LCMS-MS.

[3] = Caco-2 bidirectional assay, effect of piperine and tetrahydropiperine on permeability of TDF; details: human, Caco-2, pH 7.4
Protocol: Caco-2 cells were cultured in MEM media with 10% serum and seeded at a density of 75000 cells per mL and cultured for 21 days in a 24-well trans-well plate at 37° C., 5% CO2. The monolayer integrity was checked intermittently (Day 0-21) using Trans Epithelial Electric Resistance (TEER). Cells were treated with drugs as follows:
as §5
For B-A, 800 μL of the respective dilutions were added to the basal side in duplicates with 400 μL HBSS pH 7.4 in the apical wells. Samples were collected at 60, 90 and 120 minutes from the apical side. Mass balance samples at 0 and 120 minutes were collected from the basal side.
The sample were analyzed on LCMS-MS. At the end of the experiment the monolayer integrity was checked using and Lucifer yellow, calculating the % rejection of Lucifer yellow by incubating cells with 100 μg/mL Lucifer.
as §6

Caco-2 cells [4] = experiment: Caco-2 bidirectional assay, effect of piperine on permeability of dolutegravir; details: in words
Protocol: as §1, §3

Caco-2 cells [5] = experiment: Caco-2 unidirectional assay (A-B), permeability
Protocol: as §1
(§4) Stock preparations: 10 mM stocks of all the drugs were prepared in DMSO. The test concentrations were further prepared in HBSS buffer containing 10 mM MES hydrate pH 6.8 as per the plate plan. Also, HBSS buffer with 10 mM HEPES with pH 7.4 was prepared.
as §2

[6] = Caco-2 unidirectional assay (A-B), permeability; details: human, Caco-2
Protocol: as §1, §4, §2

P-gp = P-gp (Homo sapiens, UniProt P08183); experiment: in vitro; format: cell-based; details: pH 7.4, drug alone (Digoxine 10 μM; TAF 100 μM)
P-gp, sequence (P08183 whole entry): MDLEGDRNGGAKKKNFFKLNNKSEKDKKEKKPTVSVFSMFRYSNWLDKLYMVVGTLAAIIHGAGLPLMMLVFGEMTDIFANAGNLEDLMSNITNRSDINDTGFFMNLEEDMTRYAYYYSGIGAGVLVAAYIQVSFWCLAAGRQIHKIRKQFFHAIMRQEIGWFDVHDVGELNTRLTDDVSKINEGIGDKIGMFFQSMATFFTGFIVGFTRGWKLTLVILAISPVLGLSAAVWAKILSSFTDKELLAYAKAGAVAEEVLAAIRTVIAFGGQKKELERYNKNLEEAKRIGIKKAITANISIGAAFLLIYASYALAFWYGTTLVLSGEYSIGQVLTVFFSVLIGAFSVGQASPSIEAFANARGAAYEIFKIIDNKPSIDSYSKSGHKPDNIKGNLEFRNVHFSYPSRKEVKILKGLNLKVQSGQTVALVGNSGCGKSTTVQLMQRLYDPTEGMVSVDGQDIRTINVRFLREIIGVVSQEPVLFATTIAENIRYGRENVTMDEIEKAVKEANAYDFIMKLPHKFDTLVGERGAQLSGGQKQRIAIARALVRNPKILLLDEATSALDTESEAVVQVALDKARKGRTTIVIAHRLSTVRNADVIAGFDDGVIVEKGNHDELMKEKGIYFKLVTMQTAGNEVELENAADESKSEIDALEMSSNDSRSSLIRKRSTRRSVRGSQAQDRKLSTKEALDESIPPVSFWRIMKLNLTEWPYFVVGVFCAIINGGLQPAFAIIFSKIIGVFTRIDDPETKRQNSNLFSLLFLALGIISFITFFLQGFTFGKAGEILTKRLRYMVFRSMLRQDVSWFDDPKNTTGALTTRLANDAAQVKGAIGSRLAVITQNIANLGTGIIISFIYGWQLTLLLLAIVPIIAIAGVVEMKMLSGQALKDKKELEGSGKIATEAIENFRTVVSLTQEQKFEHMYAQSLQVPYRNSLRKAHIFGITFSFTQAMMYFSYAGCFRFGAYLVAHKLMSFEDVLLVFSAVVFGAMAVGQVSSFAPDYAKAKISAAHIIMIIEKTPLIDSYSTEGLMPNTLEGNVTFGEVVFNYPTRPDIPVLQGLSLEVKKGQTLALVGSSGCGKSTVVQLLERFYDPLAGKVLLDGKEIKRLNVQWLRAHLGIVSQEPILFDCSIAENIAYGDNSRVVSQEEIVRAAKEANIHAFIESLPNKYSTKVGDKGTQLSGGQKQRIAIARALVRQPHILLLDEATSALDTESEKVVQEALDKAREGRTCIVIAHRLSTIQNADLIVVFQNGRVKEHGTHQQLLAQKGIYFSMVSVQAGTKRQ
Protocol: as §1, §2

[7] = male, Wistar, rat, in vivo, 300 mg
Protocol: The objective of this non-GLP study was to determine the pharmacokinetics of the TDF alone and in combinations with piperine in different groups of male Wistar rats after single dose intravenous administration and oral administration. This study was performed with approval from the Institutional Animal Ethics Committee (IAEC) in accordance with the requirement of Committee for the Purpose of Control and Supervision of Experiments on Animals (CPCSEA), India.
An equal volume (4.72 mL) of each formulation was mixed in separate vials to get 5 mL/kg.
An equal volume (5.61 mL) of each formulation was mixed in separate vials to get 5 mL/kg.
Bioanalysis was performed using fit-for-purpose LC-MS/MS method for the quantification of TDF and PMPA in rat plasma samples. […]
Plasma pharmacokinetic parameters were calculated using the non-compartmental analysis tool of Phoenix software (Version 6.3) and were determined from individual animals in each group. The peak plasma concentration (Cmax), time to achieve peak plasma concentration (Tmax), the area under the plasma concentration-time curve (AUC0-t and AUCinf), AUC Extra (%), elimination half-life (T½), clearance (CL), volume of distribution Vd (L/kg) and Mean residence time (MRT) were calculated from the intravenous group. […]

Structure (SMILES)	Papp A→B at 120 min [1] [×10⁻⁶ cm/s]	Papp B→A at 120 min [1] [×10⁻⁶ cm/s]	Papp A→B at 120 min [2] [×10⁻⁶ cm/s]	Papp B→A at 120 min [2] [×10⁻⁶ cm/s]	Papp A→B at 120 min [3] [×10⁻⁶ cm/s]	Papp B→A at 120 min [3] [×10⁻⁶ cm/s]	Papp A→B at 120 min, 50 μM [6] [×10⁻⁶ cm/s]	Papp A→B at 120 min, 100 μM [6] [×10⁻⁶ cm/s]	other results
CC(C)CN(C[C@@H](O)[C@H](Cc1ccccc1)NC(=O)O[C@H]1CO[C@H]2OCC[C@H]21)S(=O)(=O)c1ccc(N)cc1 [Darunavir]	8.83	21.7	–	–	–	–	–	–	–
C[C@H]1O[C@@H](O[C@H]2[C@@H](O)C[C@H](O[C@H]3[C@@H](O)C[C@H](O[C@H]4CC[C@@]5(C)[C@H](CC[C@@H]6[C@@H]5C[C@@H](O)[C@]5(C)[C@@H](C7=CC(=O)OC7)CC[C@]65O)C4)O[C@@H]3C)O[C@@H]2C)C[C@H](O)[C@@H]1O [Digoxin]	1.12	14.2	4.5	28.9	0.816	15.5	–	–	Papp A→B (in vitro): 1.94 ×10⁻⁶ cm/s; Papp B→A (in vitro): 20.5 ×10⁻⁶ cm/s
C[C@@H]1CCO[C@H]2Cn3cc(C(=O)NCc4ccc(F)cc4F)c(=O)c(O)c3C(=O)N12 [Dolutegravir]	–	–	40.2	84.3	–	–	–	–	Permeability classification (Caco-2 cells [4]): high permeable
CC(C)OC(=O)[C@H](C)N[P@](=O)(CO[C@H](C)Cn1cnc2c(N)ncnc21)Oc1ccccc1 [TAF, tenofovir alafenamide fumarate]	–	–	–	–	–	–	5.86	5.39	Papp A→B at 120 min (in vitro): 3.45 ×10⁻⁶ cm/s; Papp B→A at 120 min (in vitro): 17.8 ×10⁻⁶ cm/s; Permeability classification (Caco-2 cells [5]; in words): low to moderately permeable; inhibition at 120 min, 100 μM (P-gp): 0%
CC(C)OC(=O)OCOP(=O)(CO[C@H](C)Cn1cnc2c(N)ncnc21)OCOC(=O)OC(C)C [TDF, tenofovir disoproxil fumarate]	–	–	–	–	2.55	15.2	6.58	6.35	Bioavailability [7]: 34.39±6.07; Permeability classification (Caco-2 cells [5]; Caco-2): low to moderately permeable; Papp A→B at 120 min, 200 μM [3]: 3.77 ×10⁻⁶ cm/s; Papp B→A at 120 min, 200 μM [3]: 14.3 ×10⁻⁶ cm/s; efflux ratio at 120 min, 200 μM [3]: 3.79
